Measurements as given in patent publication US20080254480A1, “MICROCYTOXICITY ASSAY BY PRE-LABELING TARGET CELLS” (University of Pittsburgh - Of the Commonwealth System of …, priority 2007, published 2008).

What was measured:
BT-20 tumor cells = assay: BrdU labeling of cell nuclear DNA of target cells in microwells of Tarasaki plates; format: cell-based, human; settings: 5 μM of BrdU, co-incubated for 24 hours
Description: FIG. 2. Graph depicting BrdU concentration versus incubation period for labeling of target cells in microwells of Tarasaki plates. BT-20 tumor cells (250/microwell) were seeded in the miniplates and incubated for 24 hours. Various concentrations of BrdU then were added to the microwells containing adherent tumor cells, and the incubation was continued for various periods of time, as indicated. After this labeling, the adherent tumor cells were fixed and stained, with an isotype-matched control or an anti-BrdU mAb, and then visually analyzed. Each point on the figure represents a mean value of a triplicate. SD was less than 10% of the mean values.
BrdU-labeling of target cells in microwells. Suspensions of tumor target cells were prepared from their adherent monolayers, as described above. Target cells were resuspended in tissue culture medium (e.g., RPMI-1640 supplemented with 10% FCS) in an adequate concentration, to contain 100 to 500 cells per 10 μl. BrdU solution was added to this cell suspension, to get its final concentration of 5 μM. In some experiments, to determine the optimal labeling conditions, the concentration of BrdU was varied. […]

target cells = assay: Functional properties of BrdU labeled target cells (viability, proliferation, TNF family receptor expression); format: cell-based; settings: trypan blue dye exclusion; increase of cell numbers in culture; flow cytometry
Source text: In order to determine whether BrdU labeling of cell nuclear DNA affects cellular functions, the inventor examined viability (by trypan blue dye exclusion assay) and proliferation (by evaluation of increase of cell numbers in culture) of target cells, after they were labeled with the DNA metabolic label. In addition, expression of the cell membrane-bound TNF family receptors involved in apoptosis mediated by immune effector cells, such as TNFR1, TNFR2, Fas and LT-βR, was investigated using flow cytometry.

## O=c1[nH]c(=O)n([C@H]2C[C@H](O)[C@@H](CO)O2)cc1Br [BrdU, 5-bromo-2′-deoxyuridine]
BT-20 tumor cells
  strong and uniformed labeling of nuclei: 90%
Target cells
  effect of BrdU labeling on cellular functions tested (viability, proliferation, expression of TNFR1, TNFR2, Fas and LT-βR): no significant effect
